Laboratory results published in US20250215039A1, “NUCLEOSIDES FOR TREATING CANCER” (PRIMEFOUR THERAPEUTICS, INC., priority 2022, published 2025).
Like-named read-outs stand apart in the source and are kept apart here.

Test system: cancer cell lines
Assay: Cancer cell proliferation activity (CellTiterGlo, 72 h)
Assay type: cell-based
Conditions: 72 h, 72 h, read-out: IC50 cell proliferation
Procedure, shortened: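 Readout is CellTiterGlo luminescence after 72 h compound exposure (0.1% DMSO final), started one day post-seeding, at 37 °C.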

C[C@]1(CO)O[C@@H](n2cnc3c(N)nc(F)nc32)[C@H](O)[C@@H]1O [Cpd. No. 178, (2R,3S,4R,5R)-5-(6-amino-2-fluoro-9H-purin-9-yl)-2-(hydroxymethyl)-2-methyltetrahydrofuran-3,4-diol]
IC50 (5637 (bladder)): 0.16 µM | IC50 (CLS439 (bladder)): 0.77 µM | IC50 (HS729 (muscle)): 0.12 µM | IC50 (J82 (bladder)): 0.08 µM | IC50 (JAR (placenta)): 0.03 µM | IC50 (MT3 (breast)): 0.04 µM | IC50 (PANCI (pancreas)): 14.9 µM | IC50 (PC3 (prostate)): 0.07 µM | IC50 (RD (muscle)): 0.07 µM | IC50 (T24 (bladder)): 0.09 µM | IC50 (Homo sapiens, 22Rv1, 72 h, 22RV1 (prostate)): 0.25 µM | IC50 (Homo sapiens, 786-0, 72 h, 786O (kidney)): 0.07 µM | IC50 (Homo sapiens, A204, 72 h, A204 (muscle)): 0.03 µM | IC50 (Homo sapiens, A549, 72 h, A549 (lung)): 0.37 µM | IC50 (Homo sapiens, A673, 72 h, A673 (bone)): 0.36 µM | IC50 (Homo sapiens, A2780, 72 h, A2780 (ovary)): 0.15 µM | IC50 (Homo sapiens, A-375, 72 h, A375 (skin)): 0.04 µM | IC50 (Homo sapiens, A-431, 72 h, A431 (skin)): 0.05 µM | IC50 (Homo sapiens, ACHN, ACHN (kidney)): 0.46 µM | IC50 (Homo sapiens, ASPC1, 72 h, ASPC1 (pancreas)): 0.03 µM | IC50 (Homo sapiens, BT-20, 72 h, BT20 (breast)): 0.07 µM | IC50 (Homo sapiens, BXPC-3, 72 h, BXPC3 (pancreas)): 0.52 µM | IC50 (Homo sapiens, C-33-A, C33A (endometrial)): 0.06 µM | IC50 (Homo sapiens, CAKI-1, 72 h, CAKI1 (kidney)): 0.01 µM | IC50 (Homo sapiens, COLO 205, 72 h, COLO205 (colon)): 0.17 µM | IC50 (Homo sapiens, COLO-678, 72 h, COLO678 (colon)): 0.65 µM | IC50 (Homo sapiens, Ca-Ski, CASKI (endometrial)): 0.04 µM | IC50 (Homo sapiens, Caco-2, 72 h, CACO2 (colon)): 0.16 µM | IC50 (Homo sapiens, Calu-6, 72 h, CALU6 (lung)): 0.03 µM | IC50 (Homo sapiens, DLD-1, 72 h, DLD1 (colon)): 0.35 µM | IC50 (Homo sapiens, DU-145, 72 h, DU145 (prostate)): 0.02 µM | IC50 (Homo sapiens, EFO-21, 72 h, EFO21 (ovary)): 0.08 µM | IC50 (Homo sapiens, EJ-28, 72 h, EJ28 (bladder)): 0.06 µM | IC50 (Homo sapiens, Granta-519, 72 h, GRANTA-519 (hematological)): 2.84 µM | IC50 (Homo sapiens, HCT-15, 72 h, HCT15 (colon)): 0.14 µM | IC50 (Homo sapiens, HCT-116, 72 h, HCT116 (colon)): 0.16 µM | IC50 (Homo sapiens, HEK293, 72 h, HEK293 (kidney)): 0.07 µM | IC50 (Homo sapiens, HL-60, 72 h, HL-60 (hematological)): 0.04 µM | IC50 (Homo sapiens, HT-29, 72 h, HT29 (colon)): 0.05 µM | IC50 (Homo sapiens, HT-1080, 72 h, HT1080 (connective tissue)): 2.09 µM | IC50 (Homo sapiens, HeLa, HELA (endometrial)): 0.07 µM | IC50 (Homo sapiens, HepG2, 72 h, HEPG2 (liver)): 0.06 µM | IC50 (Homo sapiens, Hs-578T, HS578T (breast)): 0.07 µM | IC50 (Homo sapiens, IGROV-1, 72 h, IGROV1 (ovary)): 0.03 µM | IC50 (Homo sapiens, IMR-90, 72 h, IMR90 (lung)): 0.05 µM | IC50 (Homo sapiens, JEG-3, 72 h, JEG3 (placenta)): 0.04 µM | IC50 (Homo sapiens, JIMT-1, 72 h, JIMT1 (breast)): 0.02 µM | IC50 (Homo sapiens, K562, 72 h, K-562 (hematological)): 1.17 µM | IC50 (Homo sapiens, Kasumi 1, 72 h, KASUMI-1 (hematological)): 0.02 µM | IC50 (Homo sapiens, L-363, 72 h, L-363 (hematological)): 0.02 µM | IC50 (Homo sapiens, LoVo, LOVO (colon)): 0.02 µM | IC50 (Homo sapiens, MCF7, 72 h, MCF7 (breast)): 2.55 µM | IC50 (Homo sapiens, MDA-MB-231, 72 h, MDAMB231 (breast)): 1.06 µM | IC50 (Homo sapiens, MDA-MB-435, 72 h, MDAMB435 (skin)): 0.19 µM | IC50 (Homo sapiens, MDA-MB-436, 72 h, MDAMB436 (breast)): 0.05 µM | IC50 (Homo sapiens, MDA-MB-468, 72 h, MDAMB468 (breast)): 0.09 µM | IC50 (Homo sapiens, MG-63, 72 h, MG63 (bone)): 3.61 µM | IC50 (Homo sapiens, MHH-ES-1, 72 h, MHHES1 (bone)): 0.1 µM | IC50 (Homo sapiens, MIA PaCa-2, 72 h, MIAPACA2 (pancreas)): 7.25 µM | IC50 (Homo sapiens, MINO, MINO (hematological)): 0.02 µM | IC50 (Homo sapiens, MV4-11, 72 h, MV4-11 (hematological)): 0.02 µM | IC50 (Homo sapiens, NCI-H23, 72 h, NCI-H23 (lung)): 0.06 µM | IC50 (Homo sapiens, NCI-H82, 72 h, NCIH82 (lung)): 0.07 µM | IC50 (Homo sapiens, NCI-H292, 72 h, NCIH292 (lung)): 0.83 µM | IC50 (Homo sapiens, NCI-H460, 72 h, NCIH460 (lung)): 0.04 µM | IC50 (Homo sapiens, OVCAR-3, 72 h, OVCAR3 (ovary)): 0.03 µM | IC50 (Homo sapiens, OVCAR-4, 72 h, OVCAR4 (ovary)): 0.08 µM | IC50 (Homo sapiens, PLC-PRF-5, 72 h, PLCPRF5 (liver)): 0.45 µM | IC50 (Homo sapiens, Panc1005, 72 h, PANC1005 (pancreas)): 0.06 µM | IC50 (Homo sapiens, Ramos, RAMOS (hematological)): 0.13 µM | IC50 (Homo sapiens, SAOS-2, 72 h, SAOS2 (bone)): 0.05 µM | IC50 (Homo sapiens, SF-268, 72 h, SF268 (brain)): 1.88 µM | IC50 (Homo sapiens, SF-295, 72 h, SF295 (brain)): 0.23 µM | IC50 (Homo sapiens, SK-BR-3, 72 h, SKBR3 (breast)): 0.01 µM | IC50 (Homo sapiens, SK-HEP1, 72 h, SKHEP1 (liver)): 0.45 µM | IC50 (Homo sapiens, SK-LMS-1, 72 h, SKLMS1 (uterus)): 0.04 µM | IC50 (Homo sapiens, SK-MEL-5, 72 h, SKMEL5 (skin; SKMELS [sic] in Table 9E)): 0.58 µM | IC50 (Homo sapiens, SK-MEL-28, 72 h, SKMEL28 (skin)): 0.1 µM | IC50 (Homo sapiens, SK-N-AS, SKNAS (brain)): 0.07 µM | IC50 (Homo sapiens, SK-N-SH, SKNSH (brain)): 0.03 µM | IC50 (Homo sapiens, SK-OV-3, 72 h, SKOV3 (ovary)): 0.06 µM | IC50 (Homo sapiens, SNB-75, 72 h, SNB75 (brain)): 0.16 µM | IC50 (Homo sapiens, SU-DHL10, 72 h, SU-DHL-10 (hematological)): 0.44 µM | IC50 (Homo sapiens, SU-DHL-6, 72 h, SU-DHL-6 (hematological)): 0.03 µM | IC50 (Homo sapiens, SW-620, 72 h, SW620 (colon)): 0.05 µM | IC50 (Homo sapiens, TE-671, 72 h, TE671 (muscle)): 0.37 µM | IC50 (Homo sapiens, THP-1, 72 h, THP-1 (hematological)): 1.77 µM | IC50 (Homo sapiens, U2OS, U20S (bone; U2OS in Table 9E)): 0.06 µM | IC50 (Homo sapiens, U-87 MG, U87MG (brain)): 2.01 µM | IC50 (Homo sapiens, UMUC3, 72 h, UMUC3 (bladder)): 0.98 µM | IC50 (Homo sapiens, UO-31, 72 h, UO31 (kidney)): 0.04 µM | IC50 (Homo sapiens, WSU-NHL, WSU-NHL (hematological)): 0.03 µM | IC50 (NCI-H358M, NCIH358M (lung)): 0.07 µM | IC50 (PBMC, PBMC (hematological)): 0.32 µM | IC50 (RD-ES, RDES (bone)): 0.03 µM
